What all share (type): cell-based, human
Data set [1] deals with panel of 53 breast cancer cell lines. In words: Cell viability/growth assay and dose response (GI50), CellTiter-Glo. As to conditions: for GI50 values in cell lines with a high MNAI as compared to a low MNAI: breast cancer cell lines, FIG. 6; for effectiveness by breast cancer subtype: panel of 50 breast cancer cell lines that included both basal and luminal cell lines. How it is done: Human non-malignant and breast cancer cell lines, established from normal and human breast cancer samples, are publicly available and were used in the development of the mitotic network. The source of these cells includes nearly 55 well-characterized breast cell lines with genomic information (i.e. gene copy numbers of various genes) and gene expression data such as gene signatures characteristic of each cell line. Information that directs optimal incubation conditions are detailed in The cell incubational condition of the cell lines was shown reference (Neve, R. M. et al. Cancer Cell 10, 515-527 (2006).
The inhibitor compounds used were small molecule inhibitors. Theses small-molecule inhibitors for PLK1 (GSK461364), CENPE (GSK923295) and AURKB (GSK1070916) were provided by GlaxoSmithKline Inc. Stock solutions were made at a concentration of 10 mM in DMSO and stored at −20° C. Compounds were diluted (1:5 serial dilution), ranging between 0.0768 nM to 30 μM.
The cell viability and growth assay and dose response (GI50) experiments were conducted following dose-response curves that were determined according to the National Cancer Institute (NCI), National Institute of Health (NIH) guidelines. In brief, cell suspensions were plated into 96-well plates in 100 μl growth media. Inoculates were allowed a pre-incubation period of 24 hours at 37° C. for stabilization. Cells were treated with 9 doses in triplicates for 72 hours with GSK461364 or GSK1070916. Cell proliferation was measured with CellTiter-Glo® Luminescent Cell Viability Assay (Promega, Madison, Wis.). After subtraction of the baseline (the viability of the cells just before treatment, time 0), the absorbance was plotted. Total growth inhibition doses and 50% growth inhibition doses GI50 were calculated by GraphPad Prism4 software (GraphPad Software, Inc., La Jolla, Calif.).
Human non-malignant and breast cancer cell lines have been established from normal and human breast cancer samples. The cell lines described in this study derived from 49 malignant and 4 non-malignant breast tissues and growth conditions for the cell lines have been reported previously This resource consists of nearly 54 well-characterized breast cell lines with information on genomic and gene expression signatures. The cell incubational condition of the cell lines was shown previously by some of the inventors in Neve, R. M. et al. Cancer Cell 10, 515-527 (2006).
The small-molecule inhibitors for PLK1 (GSK461364), CENPE (GSK923295) and AURKB (GSK1070916) were provided by GlaxoSmithKline, Inc. Stock solutions were made at a concentration of 10 mM in DMSO and stored at −20° C. Compounds were diluted (1:5 serial dilution) to produce test drug concentrations ranging from 0.0768 nM to 30 μM.
Dose-response curves were determined according to the National Cancer Institute NIH guidelines. In brief, cell suspensions were aliquoted into 96-well plates in 100 μl growth media. Inoculates were allowed a preincubation period of 24 hours at 37° C. for stabilization. Cells were treated with 9 doses in triplicate for 72 hours with GSK461364 or GSK1070916. Cell proliferation was measured with CellTiter-Glo® Luminescent Cell Viability Assay (Promega, Madison. WI). After subtraction of the baseline (an estimate of the number of the cells just before treatment, time 0), the absorbance was plotted. Total growth inhibition doses and 50% growth inhibition doses GI50 were calculated by GraphPad Prism4 software (GraphPad Software, Inc., La Jolla, Calif.).
The correlation among the cellular GI50 values of GSK461364, GSK1070916 and GSK92325 was examined by Pearson correlation test. Tumor expression profiles were clustered using the mitotic network genes. Kaplan-Meier survival curves were generated for patients stratified into groups of high (upper tertile) and low (lower tertile) MNAI to evaluate differences in disease-free survival (DFS). […]

Data set [2] concerns sensitive (HCC38) or resistant (MDAMB175) breast cancer cell line. Nature of the data set: Treatment with mitotic apparatus inhibitors alone or in combination of two. As to conditions: HCC38 (sensitive) and MDAMB175 (resistant), FIG. 8. How it is done:
Dose response to GSK461364, GSK923295 and GSK1070916 was assayed individually or in combination in different breast cancer subtypes. FIG. 8A is a graph of response to single and combination doses of PLK1 and AURKB inhibitors; FIG. 8B is a graph of response to single and combination doses of PLK1 and CENPE inhibitors; and FIG. 8C is a graph of response to single and combination doses of CENPE and AURKB inhibitors.
In that case, combinations of mitotic apparatus inhibitors would not be expected to show additive or synergistic effects. We tested this by treatment of sensitive and resistant breast cancer cell lines with GSK461364 or GSK1070916 or GSK923295 alone and in combination two of them at different doses. […] That being the case, deployment of drugs targeting other genes in the mitotic apparatus network might contribute to development of a mitotic apparatus therapeutic armamentarium that could effectively counter development of drug resistance and provide durable treatments that will be effective against metastasis. Small molecular inhibitors have already been reported as under development for AURKA (MLN8054), CHEK2 (PD-321852). […] Work developing the mitotic network informs that inhibitors of these genes will be preferentially be effective in tumors with high MNAIs and are thus top candidates for drug development.
This was tested by treating a sensitive (HCC38) or resistant (MDAMB175) breast cancer cell line with GSK461364, GSK1070916 and GSK923295 either alone or in combination.

Data set [3] deals with HJURP protein in MDAMB231. Nature of the data set: HJURP protein level by Western blot after HJURP shRNA. As to conditions: stable transfectants in MDAMB231, Western blotting, FIG. 20e. How it is done:
For Western blots, […] of protein extracts per lane were electrophoresed with denaturing sodium doedecyl sulfate (SDS)-polyacrylamide gels (4% to 12%), transferred to PVDF membranes (Millipore, Temecula, Calif., USA), and incubated with HJURP antibody 1:500 (Rabbit, HPA008436, Sigma-Aldrich, St. Louis, Mo., USA) and actin (goat, sc-1616, Santa Cruz Biotechnology, Santa Cruz, Calif., USA) diluted with blocking buffer (927-40000, LI-COR Biosciences, Lincoln, Nebr., USA) The membranes were washed four times with TBST and treated with 1:10,000 dilution of Alex Fluor 680 donkey anti-rabbit (A10043 Invitrogen, Carlsbad, Calif., USA) and IRDye 800CW conjugated donkey anti-goat (611-731-127, Rockland, Gilbertsville, Pa., USA) to detect HJURP and actin respectively. The signals were detected by infrared imaging (LI-COR Biosciences, Lincoln, Nebr., USA). Images were recorded as TIFF files for quantification.
Protein levels were measured by quantifying infrared imaging recorded from labeled antibodies using Scion Image. For each protein, the blots were made for 7 sets of 11 cell lines, each set including the same pair (SKBR3 and MCF12A) to permit intensity normalization across sets. […]
Seventy-two hours after radiation, we measured cell growth and apoptosis using high-content image analysis. […]
On the technique in general: In western blotting, separated proteins are transferred to a membrane and probed.

The subject of data set [4] is MDAMB231 breast cancer cells. Nature of the data set: Radiation sensitivity, high content imaging of cell number and apoptotic cells. As to conditions: MDAMB231, 72 hours after X-ray radiation, FIG. 20f. As to the method:
MDAMD231 cells are more sensitive to radiation treatment than T47D cells. […] There are more apoptosis in MDAMB231 cells than T47D cells. […] BT20 cells are more sensitive to radiation treatment than MCF10A cells. […] There are more apoptosis in BT20 cells than MCF10A cells.
High content imaging to assess cell number and apoptotic cells. The effects on cell growth and apoptosis were assessed by a Cellomics high-content image screening system (Cellomics, Thermo Fisher Scientific Inc., Pittsburgh, Pa., USA) after breast cancer cells exposed to a single dose of 0 (sham), 1, 2, 4, 6, 8 or 10 Gy X-ray radiation emitted from an irradiator (model 43855F, Faxitron X-ray Corporation, Lincolnshire, Ill., USA). Live cells in 96 well plates with six replicates from each treatment were stained with 1 μmol/L YO-PRO-1 positive cells.
Seventy-two hours after radiation, we measured cell growth and apoptosis using high-content image analysis. […] Similar results were found in additional cell lines BT20 with high levels of HJURP and MCF10A with low levels of HJURP (FIG. 20c, d). Finally we designed […] (shRNA) against HJURP and generated stable transfectants in a human breast cancer cell line (MDAMB231).

A further data set has as its system cells with HJURP shRNA. Nature of the data set: Growth of cells with HJURP shRNA (data not shown).

Take `CCn1cc(-c2ccnc3[nH]c(-c4cccc(CN(C)C)c4)cc23)c(-c2ccc(NC(=O)N(C)C)cc2)n1` [GSK1070916]: in data set [1], the “GI50 values in cell lines with a high MNAI as compared to a low MNAI” value (shortened to “GI50 values … compared to a low MNAI”) is given as “significantly lower in cell lines with a high MNAI” and the “effectiveness by breast cancer subtype” value is “most effective against basal cell breast cancer subtypes”. Besides, in data set [2], the “response to combination of compounds against two different mitotic apparatus proteins versus alone” value is listed as “did not increase the response in either cell type”.

On to `CC(C)Oc1ccc(C(=O)N[C@H](CNC(=O)CN(C)C)Cc2ccc(-c3cn4cccc([C@H](C)O)c4n3)cc2)cc1Cl` [GSK923295], for which, in data set [1], the “GI50 values … compared to a low MNAI” value was “significantly lower in cell lines with a high MNAI” and the “effectiveness by breast cancer subtype” value is “most effective against basal cell breast cancer subtypes”. In addition, the “response to combination of compounds against two different mitotic apparatus proteins versus alone” value in data set [2] is given as “did not increase the response in either cell type”.

Take `C[C@@H](Oc1cc(-n2cnc3ccc(CN4CCN(C)CC4)cc32)sc1C(N)=O)c1ccccc1C(F)(F)F` [GSK461364]: in data set [1], the “GI50 values … compared to a low MNAI” value is “significantly lower in cell lines with a high MNAI” and the “effectiveness by breast cancer subtype” value is given as “most effective against basal cell breast cancer subtypes”. The “response to combination of compounds against two different mitotic apparatus proteins versus alone” value in data set [2] is “did not increase the response in either cell type”.

B1: HJURP shRNA: shRNA against HJURP (SEQ ID NO: 56 and 57) cloned into pSUPER.retro.puro retroviral vector (nucleic acid)
sense: GATCCCCGAGCGATTCATCTTCATCATTCAAGAGATGATGAAGATGAATCGCTCTTTTTGGAA
antisense: AGCTTTTCCAAAAAGAGCGATTCATCTTCATCATCTCTTGAATGATGAAGATGAATCGCTCGGG
As for B1, the “down-regulation of HJURP protein levels” value in data set [3] is reported as 75%. For the same molecule, the sensitivity to radiation entry in data set [4] is “reduced the sensitivity to radiation”. The cell growth entry in the data set on cells with HJURP shRNA is given as “grew slowly”.

The values above are taken from US20120222139A1, “Cancer Specific Mitotic Network” (THE REGENTS OF THE UNIVERSITY OF CALIFORNIA, priority 2009, published 2012).
